Data published in patent US5541175A, “Cephalosporin antibiotics” (Lucky, Ltd., priority 1993, dated 1996).
Converted amounts (≈) assume the structure as drawn. Read-outs that look alike come from different tables or passages of the source.

Experiments:
[1] = Pharmacokinetic properties in rats (blood concentration by agar well biological assay); set-up: species or system SD rats (male); conditions: rat, in vivo, iv, 20 mg/kg
Procedure: The pharmacokinetic properties of the compound of the present invention were determined using SD rats (.male.) weighing 230±10 g. Specifically,the test samples were injected into femoral vein in an amount of 20 mg/kg to 4 to 5 test animals. Blood was taken from femoral vein 1, 2.5, 5, 10, 20, 40, 60, 120 and 180 minutes after administration and then subjected to a biological assay using agar well method to measure the blood concentration.

[2] = test system: Staphylococcus aureus 77; test: Minimum inhibitory concentration (agar 2-fold dilution); assay type: cell-based; conditions: Staphylococcus aureus; S. aureus 77; Muller-Hinton agar, 37° C., 20 hours; read-out: Minimum Inhibitory Concentration
Procedure: (§1) The minimum inhibitory concentration was determined by diluting the test compounds according to 2-fold dilution, suspending them in Muller-Hinton agar medium, inoculating 2 μl of the suspension containing the test strains having 10^7 CFU (Colony Forming Unit) per 1 ml into the medium and then culturing the test strains at 37° C. for 20 hours.

[3] = test system: Escherichia coli TEM3 3455E; test: as above; assay type: cell-based; conditions: TEM33455E, 20 h, read-out: Minimum Inhibitory Concentration
Procedure: as §1

[4] = test system: Klebsiella aerogenes SHV-1 1976E; test: as above; assay type: cell-based; conditions: SHV11976E, K. aerogenes SHV-1 1976E, Muller-Hinton agar, 37° C., 20 hours
Procedure: as §1

[5] = test system: Proteus vulgaris 6059A; test: as above; assay type: cell-based; conditions: P. vulgaris 6059A, Muller-Hinton agar, 37° C., 20 hours, read-out: Minimum Inhibitory Concentration
Procedure: as §1

[6] = test system: Klebsiella aerogenes K1 + 1082E; test: as above; assay type: cell-based; conditions: 20 h, read-out: Minimum Inhibitory Concentration
Procedure: as §1

[7] = test system: Escherichia coli TEM7 3457E; test: as above; assay type: cell-based; conditions: TEM73457E, 20 h, read-out: Minimum Inhibitory Concentration
Procedure: as §1

[8] = test system: Staphylococcus aureus epidermidis 887E; test: as above; assay type: cell-based; conditions: S. aureus epidermidis 887E, Muller-Hinton agar, 37° C., 20 hours, read-out: Minimum Inhibitory Concentration
Procedure: as §1

[9] = test system: Escherichia coli 851E; test: as above; assay type: cell-based; conditions: E. coli 851E, Muller-Hinton agar, 37° C., 20 hours
Procedure: as §1

[10] = test system: Staphylococcus aureus 241; test: as above; assay type: cell-based; conditions: Staphylococcus aureus; S. aureus 241; Muller-Hinton agar, 37° C., 20 hours; read-out: Minimum Inhibitory Concentration
Procedure: as §1

[11] = test system: Streptococcus faecalis 29212A; test: as above; assay type: cell-based; conditions: Enterococcus faecalis; S. faecalis 29212A; Muller-Hinton agar, 37° C., 20 hours; read-out: Minimum Inhibitory Concentration
Procedure: as §1

[12] = test system: Escherichia coli 10536; test: as above; assay type: cell-based; conditions: Escherichia coli; E. coli 10536; Muller-Hinton agar, 37° C., 20 hours; read-out: Minimum Inhibitory Concentration
Procedure: as §1

[13] = test system: Salmonella typhimurium 14028A; test: as above; assay type: cell-based; conditions: Salmonella enterica; S. typhimurium 14028A; Muller-Hinton agar, 37° C., 20 hours; read-out: Minimum Inhibitory Concentration
Procedure: as §1

[14] = test system: Escherichia coli TEM5 3739E; test: as above; assay type: cell-based; conditions: TEM53739E, 20 h, read-out: Minimum Inhibitory Concentration
Procedure: as §1

[15] = test system: Escherichia coli 3190Y; test: as above; assay type: cell-based; conditions: E. coli 3190Y, Muller-Hinton agar, 37° C., 20 hours, read-out: Minimum Inhibitory Concentration
Procedure: as §1

[16] = test system: Enterobacter cloacae IND + VE 1194E; test: as above; assay type: cell-based; conditions: E. cloacae IND + VE 1194E, Muller-Hinton agar, 37° C., 20 hours, read-out: Minimum Inhibitory Concentration
Procedure: as §1

[17] = test system: Staphylococcus aureus giorgio; test: as above; assay type: cell-based; conditions: S. aureus giorgio, Muller-Hinton agar, 37° C., 20 hours, read-out: Minimum Inhibitory Concentration
Procedure: as §1

[18] = test system: Staphylococcus aureus 6538P; test: as above; assay type: cell-based; conditions: read-out: Minimum Inhibitory Concentration
Procedure: as §1

[19] = test system: Serratia marcescens 1826E; test: as above; assay type: cell-based; conditions: S. marcescens 1826E, Muller-Hinton agar, 37° C., 20 hours, read-out: Minimum Inhibitory Concentration
Procedure: as §1

[20] = test system: Pseudomonas aeruginosa 10145; test: as above; assay type: cell-based; conditions: Pseudomonas aeruginosa; P. aeruginosa 10145; Muller-Hinton agar, 37° C., 20 hours; read-out: Minimum Inhibitory Concentration
Procedure: as §1

[21] = test system: Enterobacter cloacae P99; test: as above; assay type: cell-based; conditions: P99, 20 h, read-out: Minimum Inhibitory Concentration
Procedure: as §1

[22] = test system: Pseudomonas aeruginosa 6065; test: as above; assay type: cell-based; conditions: Pseudomonas aeruginosa; P. aeruginosa 6065; Muller-Hinton agar, 37° C., 20 hours; read-out: Minimum Inhibitory Concentration
Procedure: as §1

[23] = test system: Citrobacter diversus 2046E; test: as above; assay type: cell-based; conditions: Citrobacter koseri; C. diversus 2046E; Muller-Hinton agar, 37° C., 20 hours; read-out: Minimum Inhibitory Concentration
Procedure: as §1

[24] = test system: Pseudomonas aeruginosa 1912E; test: as above; assay type: cell-based; conditions: P. aeruginosa 1912E, Muller-Hinton agar, 37° C., 20 hours, read-out: Minimum Inhibitory Concentration
Procedure: as §1

[25] = test system: Acinetobacter calcoaceticus 15473A; test: as above; assay type: cell-based; conditions: A. calcoaceticus 15473A, Muller-Hinton agar, 37° C., 20 hours, read-out: Minimum Inhibitory Concentration
Procedure: as §1

[26] = test system: Escherichia coli TEM9 2639E; test: as above; assay type: cell-based; conditions: TEM92639E, 20 h, read-out: Minimum Inhibitory Concentration
Procedure: as §1

[27] = test system: Escherichia coli TEM1 1193E; test: as above; assay type: cell-based; conditions: TEM11193E, 20 h, read-out: Minimum Inhibitory Concentration
Procedure: as §1

[28] = S. aureus 6538P, Muller-Hinton agar, 37° C., 20 hours

Compound | MIC [2] [µg/mL] | MIC [3] [µg/mL] | MIC [4] [µg/mL] | MIC [5] [µg/mL] | MIC [6] [µg/mL] | MIC [7] [µg/mL] | MIC [8] [µg/mL] | MIC [9] [µg/mL] | MIC [10] [µg/mL] | MIC [11] [µg/mL] | MIC [12] [µg/mL] | MIC [13] [µg/mL] | MIC [14] [µg/mL] | MIC [15] [µg/mL] | MIC [16] [µg/mL] | MIC [17] [µg/mL] | MIC [19] [µg/mL] | MIC [20] [µg/mL] | MIC [21] [µg/mL] | MIC [22] [µg/mL] | other results
Nc1nc(/C(=N/O[C@H](C(=O)O)c2ccc(O)c(O)c2)C(=O)N[C@@H]2C(=O)N3C(C(=O)[O-])=C(/C=C/C[n+]4cnc(N)c5c4CCC5)CS[C@H]23)cs1 [Compound I-3a, 7-[(Z)-2-(2-aminothiazol-4-yl)-2-(α-carboxy-3,4-dihydroxybenzyloxyimino)acetamido]-3-[(E)-3-(4-amino-5,6-cyclopentanopyrimidinium-1-yl)-1-propen-1-yl]-3-cephem-4-carboxylate] | 4 (≈ 5.64 µM) | 0.063 (≈ 0.0889 µM) | 0.13 (≈ 0.183 µM) | 0.13 (≈ 0.183 µM) | 0.063 (≈ 0.0889 µM) | 0.13 (≈ 0.183 µM) | 64 (≈ 90.3 µM) | 0.031 (≈ 0.0437 µM) | > 128 | 4 (≈ 5.64 µM) | 0.008 (≈ 0.0113 µM) | 0.031 (≈ 0.0437 µM) | 0.5 (≈ 0.705 µM) | 0.031 (≈ 0.0437 µM) | 2 | 1 (≈ 1.41 µM) | 0.5 (≈ 0.705 µM) | 0.5 (≈ 0.705 µM) | 16 (≈ 22.6 µM) | 1 (≈ 1.41 µM) | AUC [1]: 36600 ng·h/mL; half-life [1]: 33 min; MIC ([18]; 6538P, 20 h): 1 µg/mL (≈ 1.41 µM); MIC [23]: 0.063 µg/mL (≈ 0.0889 µM); MIC [24]: 0.5 µg/mL (≈ 0.705 µM); MIC [25]: 0.5 µg/mL (≈ 0.705 µM); MIC [26]: 2 µg/mL (≈ 2.82 µM); MIC [27]: 0.063 µg/mL (≈ 0.0889 µM)
Nc1nc(/C(=N/O[C@H](C(=O)O)c2ccc(O)c(O)c2)C(=O)N[C@@H]2C(=O)N3C(C(=O)[O-])=C(/C=C/C[n+]4cnc(N)c(N)c4N)CS[C@H]23)cs1 [Compound I-5a, 7-[(Z)-2-(2-aminothiazol-4-yl)-2-(α-carboxy-3,4-dihydroxybenzyloxyimino)acetamido]-3-[(E)-3-(4,5,6-triaminopyrimidinium-1-yl)-1-propen-1-yl]-3-cephem-4-carboxylate] | 2 (≈ 2.86 µM) | 0.063 (≈ 0.0902 µM) | 0.5 (≈ 0.716 µM) | 0.063 (≈ 0.0902 µM) | 0.063 (≈ 0.0902 µM) | 0.031 (≈ 0.0444 µM) | 64 (≈ 91.6 µM) | 0.063 (≈ 0.0902 µM) | 128 (≈ 183 µM) | 4 (≈ 5.72 µM) | 0.016 (≈ 0.0229 µM) | 0.03 (≈ 0.0429 µM) | 0.5 (≈ 0.716 µM) | 0.063 (≈ 0.0902 µM) | 1 | 0.25 (≈ 0.358 µM) | 0.5 (≈ 0.716 µM) | 0.25 (≈ 0.358 µM) | 8 (≈ 11.4 µM) | 4 (≈ 5.72 µM) | AUC [1]: 49600 ng·h/mL; half-life [1]: 41 min; MIC [18, 28]: 0.5 µg/mL (≈ 0.716 µM); MIC [23]: 0.13 µg/mL (≈ 0.186 µM); MIC [24]: 0.5 µg/mL (≈ 0.716 µM); MIC [25]: 0.5 µg/mL (≈ 0.716 µM); MIC [26]: 1 µg/mL (≈ 1.43 µM); MIC [27]: 0.063 µg/mL (≈ 0.0902 µM)
Nc1cc[n+](C/C=C/C2=C(C(=O)[O-])N3C(=O)[C@@H](NC(=O)/C(=N\O[C@@H](C(=O)O)c4ccc(O)c(O)c4)c4csc(N)n4)[C@H]3SC2)cn1 [Compound I-2b, 7-[(Z)-2-(2-aminothiazol-4-yl)-2-(α-carboxy-3,4-dihydroxybenzyloxyimino)acetamido]-3-[(E)-3-(4-aminopyrimidinium-1-yl)-1-propen-1-yl]-3-cephem-4-carboxylate] | 2 (≈ 2.99 µM) | 0.25 (≈ 0.374 µM) | 1 (≈ 1.5 µM) | 0.5 (≈ 0.748 µM) | 2 (≈ 2.99 µM) | 0.25 (≈ 0.374 µM) | 8 (≈ 12 µM) | 0.13 (≈ 0.194 µM) | 128 (≈ 191 µM) | 4 (≈ 5.98 µM) | 0.13 (≈ 0.194 µM) | 0.25 (≈ 0.374 µM) | 0.1 (≈ 0.15 µM) | 0.13 (≈ 0.194 µM) | 16 | 0.25 (≈ 0.374 µM) | 1 (≈ 1.5 µM) | 8 (≈ 12 µM) | 32 (≈ 47.9 µM) | 64 (≈ 95.7 µM) | MIC [18, 28]: 0.5 µg/mL (≈ 0.748 µM); MIC [23]: 4 µg/mL (≈ 5.98 µM); MIC [24]: 8 µg/mL (≈ 12 µM); MIC [25]: 2 µg/mL (≈ 2.99 µM); MIC [26]: 0.5 µg/mL (≈ 0.748 µM); MIC [27]: 0.25 µg/mL (≈ 0.374 µM)
